In publication doi:10.1101/704536v1 (biorxiv, 2019) one finds Kd and IC50 data, which are given here for 1 molecule.

The target in assay [1] is T1, repeat Tau (K18) (Homo sapiens, UniProt P10636). Put plainly: UV-visible absorbance titration at […] nm. The format is binding.
Assay [2] concerns the target T1, repeat Tau (K18). The experiment in a line: ThS fluorescence, inhibition of heparin-induced aggregation. The class given is biochemical.

T1 sequence (P10636 561-689 limits assumed): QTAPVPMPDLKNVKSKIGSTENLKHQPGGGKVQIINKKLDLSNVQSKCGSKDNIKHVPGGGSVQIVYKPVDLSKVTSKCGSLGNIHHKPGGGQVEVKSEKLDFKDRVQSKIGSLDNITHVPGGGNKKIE

Consider `O=c1cc(-c2ccccc2)oc2cc(O)c(O)c(O)c12` [Baicalein], for which, on repeat Tau (K18) [1], the Kd – broadly, a measure of binding affinity in units of concentration – was determined as 3.5 µM. Moreover, at repeat Tau (K18) [2], the IC50 – broadly, the concentration at which inhibition is half-maximal – came to 35.8 µM.
